These results are taken from US7863465B2, “Antifungal agents” (Merck Sharp & Dohme Corp., priority 2006, dated 2011).

Counter-ions that a name gives are not always drawn.

The target in this experiment is T1, glucan synthase (GS) prepared from Candida albicans MY1055 (Candida albicans, UniProt O13428).
T1 construct: Extraction of GS activity from membranes was performed at a protein concentration of 5 mg/mL in extraction buffer; endogenous in cells; host or cells: Candida albicans MY1055 (membranes, detergent extract, product entrapment)
T1 sequence (O13428 1-1897): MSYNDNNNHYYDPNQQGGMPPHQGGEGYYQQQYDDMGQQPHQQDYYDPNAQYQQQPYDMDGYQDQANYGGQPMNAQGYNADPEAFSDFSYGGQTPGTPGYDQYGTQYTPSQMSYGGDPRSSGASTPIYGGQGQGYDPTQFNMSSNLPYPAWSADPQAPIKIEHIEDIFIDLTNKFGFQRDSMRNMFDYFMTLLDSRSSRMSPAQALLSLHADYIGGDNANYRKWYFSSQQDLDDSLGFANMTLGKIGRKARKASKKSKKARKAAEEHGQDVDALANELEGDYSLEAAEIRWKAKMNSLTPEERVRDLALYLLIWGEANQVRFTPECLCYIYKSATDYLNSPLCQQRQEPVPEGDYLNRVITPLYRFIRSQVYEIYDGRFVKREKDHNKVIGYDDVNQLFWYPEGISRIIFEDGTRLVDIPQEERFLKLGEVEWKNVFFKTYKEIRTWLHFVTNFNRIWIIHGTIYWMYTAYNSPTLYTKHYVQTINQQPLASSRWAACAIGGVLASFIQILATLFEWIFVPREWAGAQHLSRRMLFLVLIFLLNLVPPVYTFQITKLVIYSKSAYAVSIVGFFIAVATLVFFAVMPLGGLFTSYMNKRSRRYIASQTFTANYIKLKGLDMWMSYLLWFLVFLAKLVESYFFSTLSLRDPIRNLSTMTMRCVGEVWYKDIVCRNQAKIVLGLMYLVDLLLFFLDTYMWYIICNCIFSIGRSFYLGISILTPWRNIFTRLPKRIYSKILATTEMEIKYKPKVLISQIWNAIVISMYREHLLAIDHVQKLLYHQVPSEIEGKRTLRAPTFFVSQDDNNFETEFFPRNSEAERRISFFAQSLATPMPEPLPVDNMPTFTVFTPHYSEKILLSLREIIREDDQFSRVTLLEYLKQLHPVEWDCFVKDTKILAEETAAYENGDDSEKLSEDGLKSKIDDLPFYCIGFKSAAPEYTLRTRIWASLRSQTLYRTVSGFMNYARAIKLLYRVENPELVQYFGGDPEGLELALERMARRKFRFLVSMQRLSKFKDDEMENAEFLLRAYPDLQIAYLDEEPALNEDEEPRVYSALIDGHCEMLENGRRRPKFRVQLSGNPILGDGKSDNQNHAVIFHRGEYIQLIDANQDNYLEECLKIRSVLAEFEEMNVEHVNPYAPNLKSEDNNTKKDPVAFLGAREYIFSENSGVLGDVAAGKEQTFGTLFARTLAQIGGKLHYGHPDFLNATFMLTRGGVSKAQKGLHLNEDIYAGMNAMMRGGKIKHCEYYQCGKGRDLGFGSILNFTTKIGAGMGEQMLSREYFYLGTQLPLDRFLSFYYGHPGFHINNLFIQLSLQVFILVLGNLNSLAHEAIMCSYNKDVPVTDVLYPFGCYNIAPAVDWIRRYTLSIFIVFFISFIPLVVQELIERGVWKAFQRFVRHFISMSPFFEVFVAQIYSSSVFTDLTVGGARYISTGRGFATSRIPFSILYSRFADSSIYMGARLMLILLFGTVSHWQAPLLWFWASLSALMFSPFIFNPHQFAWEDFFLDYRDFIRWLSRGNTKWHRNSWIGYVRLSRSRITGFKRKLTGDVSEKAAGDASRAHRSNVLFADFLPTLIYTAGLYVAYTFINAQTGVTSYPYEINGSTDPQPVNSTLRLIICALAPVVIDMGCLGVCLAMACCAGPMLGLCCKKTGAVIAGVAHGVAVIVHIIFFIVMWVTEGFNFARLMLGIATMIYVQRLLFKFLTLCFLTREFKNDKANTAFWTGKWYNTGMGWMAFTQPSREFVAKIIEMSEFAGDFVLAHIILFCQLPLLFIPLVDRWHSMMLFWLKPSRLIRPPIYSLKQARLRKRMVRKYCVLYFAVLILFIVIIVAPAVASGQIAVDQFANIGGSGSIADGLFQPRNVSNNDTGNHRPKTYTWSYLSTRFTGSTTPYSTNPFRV
T1 sequence (O42825 whole entry partner): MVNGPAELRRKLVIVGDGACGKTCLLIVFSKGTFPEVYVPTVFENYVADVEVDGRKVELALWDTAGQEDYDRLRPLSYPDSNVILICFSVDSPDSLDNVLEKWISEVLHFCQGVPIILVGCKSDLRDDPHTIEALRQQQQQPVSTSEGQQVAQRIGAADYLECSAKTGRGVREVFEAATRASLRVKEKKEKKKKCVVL
Put plainly: Glucan synthase inhibition (polymerization assay, 96-well, 3H-UDPG incorporation). In kind it is biochemical. As to conditions: glucan synthase from C. albicans MY1055. How it is done:
The in vitro evaluation of glucan synthase inhibitory activity of compounds was measured in a polymerization assay in 96-well format. Each well contained 100 μL of ^3H-UDPG at 0.5 mM (6000 to 8000 dpm/nmol), 50 mM HEPES pH 7.5 (Sigma), 10% w/v glycerol (Sigma), 1.5 mg/mL bovine serum albumin (Sigma A 9647. Lot 44H0190), 25 mM KF (Fisher), 1 mM EDTA (Gibco Ultrapure), 25 μM GTP-γ-S, enzyme sufficient to give 3 to 6 nmoles incorporation during the 60 min incubation at 22° C., and test compound added from wells in 3-fold serial dilutions in 100% DMSO (1 μL/well). The reaction was stopped by the addition of 100 μL of 20% trichloroacetic acid. Plates were chilled for a minimum of 10 min, and precipitated glucan collected by filtration on GF/C plates (Packard Unifilter®-96), washed with 5 cycles of water (about 1 mL/well each cycle) using a Packard Filtermate Harvester. 40 μL/well scintillation fluid (Packard Ultima Gold TM-XR) was added and the sealed plates counted in a Wallac Beta counter in top-counting mode at an efficiency of approximately 40%.
Stock solutions were stored at 10 mg/mL in DMSO at −20° C. For each new enzyme preparation, the initial titration performed started at 1 mg/mL, which was prepared by making a 10-fold dilution in DMSO (5 μL to 50 μL). 40 μL of this stock was placed in column 12 of a round-bottomed 96-well microtiter plate. 40 μL DMSO was added to columns 1 to 11 in the same row and ten 3-fold serial dilutions performed, by transferring 20 μL from column 12 to column 11 etc., with 4 mixings before each transfer. No test compound was transferred to from column 2 to column 1. Duplicate aliquots of 1 μL of all 12 dilutions were then transferred to the side walls of a 96-well Bioblock 1.1 mL plate (Fisherbrand) to create two rows.
The results were tabulated and a standard plate background was subtracted and the net count transpose-pasted into a Prism file, with final compound concentrations used in ng/mL. Graphs were created in Prism software, using the average of two determinations, and using Prism's curve fitting program (sigmoidal dose response non-linear regression).
Routine analysis was performed with glucan synthase (GS) prepared from Candida albicans MY1055 by the following procedure: MY1055 was grown in 10 liters YPD medium (10 g yeast extract, 20 g tryptone, 20 g glucose per liter) with vigorous shaking at 30° C., to early stationary phase. Cells were harvested by centrifugation, the pellet was washed and frozen at −70° C. until breakage. Thawed pellets were shaken with an equal volume of breakage buffer (50 mM HEPES pH 7.4, 10% glycerol, 1 mM EDTA, 1 mM PMSF, 1 mM DTT) and 4 times their weight of 0.5 mm acid washed glass beads for 2 hours at 4° C. Extent of breakage was assessed visually at 40× magnification. For C. parapsilosis strains, shaking was extended to 3 hours to maximize breakage. After low speed centrifugation to remove cell debris, the supernatant was centrifuged at 100,000×g for 60 min. to separate membranes plus ribosomes from cytoplasmic components. Membranes were further washed two additional times with breakage buffer using the same centrifugation conditions and finally suspended in breakage buffer at 25 to 30 mg/mL protein (Biorad) for storage at −70° C. Extraction of GS activity from membranes was performed at a protein concentration of 5 mg/mL in extraction buffer (50 mM NaPO4 pH 7.5, 0.1 M KCl, 0.1M Na citrate, 20% glycerol, 5 μM GTP-γ-S, 1 mM DTT, 1 mM PMSF, 3 μg/mL pepstatin) plus 0.25% W1 by gentle mixing at 4° C. for 60 min, followed by centrifugation at 100,000×g for 60 min. After centrifugation, clear supernatant was removed from a pellet consisting of a hard layer usually with small amounts of gelatinous unextracted membranes above it. […]

Consider `CC(=O)O[C@@H]1C[C@@]23COC[C@](C)([C@@H]2CC[C@H]2C3=CC(=O)[C@@]3(C)[C@H](C(=O)O)[C@@](C)([C@H](C)C(C)C)CC[C@]23C)[C@H]1OC[C@](C)(N)C(C)C` [Example 151, (1S,2R,3R,4aR,6aS,7R,8R,10aR,10bR,12aR)-3-acetoxy-2-[[(2R)-2-amino-2,3-dimethylbutyl]oxy]-8-[(1R)-1,2-dimethylpropyl]-1,6a,8,10a-tetramethyl-6-oxo-1,3,4,6,6a,7,8,9,10,10a,10b,11,12,12a-tetradecahydro-2H-1,4a-(methanooxymethano)chrysene-7-carboxylic acid (fumaric acid salt)], for which 17.1 nM corresponded to half-maximal inhibition (IC50). This lies in the double-digit nanomolar range.

Take `CN[C@@](C)(CO[C@H]1[C@H](OC(C)=O)C[C@@]23COC[C@]1(C)[C@@H]2CC[C@H]1C3=CC(=O)[C@@]2(C)[C@H](C(=O)O)[C@@](C)([C@H](C)C(C)C)CC[C@]12C)C(C)C` [Example 152, (1S,2R,3R,4aR,6aS,7R,8R,10aR,10bR,12aR)-3-acetoxy-2-[[(2R)-2-methylamino-2,3-dimethylbutyl]oxy]-8-[(1R)-1,2-dimethylpropyl]-1,6a,8,10a-tetramethyl-6-oxo-1,3,4,6,6a,7,8,9,10,10a,10b,11,12,12a-tetradecahydro-2H-1,4a-(methanooxymethano)chrysene-7-carboxylic acid (fumaric acid salt)]: half-maximal inhibition (IC50) required 13.7 nM.

`CC(=O)O[C@@H]1C[C@@]23COC[C@](C)([C@@H]2CC[C@H]2C3=CC(=O)[C@@]3(C)[C@H](C(=O)O)[C@@](C)([C@H](C)C(C)C)CC[C@]23C)[C@H]1OC[C@@](C)(C(C)C)N(C)C` [Example 153, (1S,2R,3R,4aR,6aS,7R,8R,10aR,10bR,12aR)-3-acetoxy-2-[[(2R)-2-dimethylamino-2,3-dimethylbutyl]oxy]-8-[(1R)-1,2-dimethylpropyl]-1,6a,8,10a-tetramethyl-6-oxo-1,3,4,6,6a,7,8,9,10,10a,10b,11,12,12a-tetradecahydro-2H-1,4a-(methanooxymethano)chrysene-7-carboxylic acid (fumaric acid salt)] had a 50% inhibitory concentration (IC50) of 26.8 nM.

What is called IC50 is the concentration that inhibits the measured activity by half.
